Consider one compound from patent US6248309A, “Gums containing antimicrobial agents” (priority 1999, dated 2001).

The structures appear in SMILES notation.

The format of data set [1] is in vivo, human volunteers. Conditions: 2.7 g peppermint gum chewed 25 min, ten volunteers. How it is done:
The saliva samples were refrigerated until analysis.
To either 2.7 grams unchewed gum sample or the remaining bolus of chewed gum, was added 3.0 millileters of internal standard (Hesperetin) in methanol, 6.0 milliliters hexane and 3.0 milliliters distilled water. Samples were homogenized using a Polytron Homogenizer model PT10/35 from Brinkmann Instruments, fitted with a PTA10TS generator for at least 30 seconds on ice, or until no lumps of non-dispersed gum were visible in the sample. Samples were then centrifuged in a Dynac Tabletop Centrifuge at top speed for ten minutes. The lower, amber, aqueous/methanol layer were then filtered through 25 millimeter, 0.45 micrometer nylon Acrodisc syringe filters from Gelman into 4 milliliter autosampler vials and tightly capped with polytetrafluorothylene lined septum in open-top screw caps. These samples were then analyzed using high pressure liquid chromatography for glabridin and/or glycyrrhizic and 18β-glycyrrhetinic acid, and were quantitated against a 4-point linear curve prepared by spiking approximately 2.7 grams unchewed samples of Wrigley Extra Sugarfree Peppermint gum with known levels of purified glabridin, glycyrrhizic acid monoammonium salt and 18β-glycyrrhetinicacid.
For the analysis of the gum bolus, both chewed and unchewed, a Polytron Homogenizer, described above was used. The gum sample was placed in a heavy wall glass tube. Internal standard ([…]) ethyl acetate ([…]) and water ([…]) were added. The sample was homogenized for approximately 30 seconds, or until no particles could be seen. The tubes were then centrifuged for 10 minutes on a clinical centrifuge at maximum speed. The supernatant was injected directly onto the gas chromatograph. The oven program was modified to allow resolution of ROF1 components from those of the peppermint flavoring. The gas chromatograph was calibrated using a three point standard curve to quantify the following components: menthol (flavor); geraniol (oil geraniol); cedrene, thujopsene (RC1); pinene, cineol, camphor, bornyl acetate (ROF1). The initial temperature was decreased from 140° C. to 100° C. The temperature gradient was changed from 10° C./minute to 4° C./minute. The split ratio was 50:1, and injection volume was 1 μL as per the method. A cleanup gradient was run every fifth sample as described previously.
A recovery study was performed in triplicate using blank Wrigley's Peppermint Gum (chewed and unchewed) spiked with stand and solution. Recovery was calculated relative to a direct standard consisting of spike solution without sample matrix.

A further data set has as its system Porphyromonas gingivalis. Nature of the data set: MIC of each agent used in Example 5. The class given is cell-based. As to conditions: read-out: MIC relative to Porphyromonas gingivalis used in Example 5. As to the method: The MIC Range was determined against a standard panel of five organisms that included Actinomyces viscosus, Fusobacterium nucleatum, Porphyromonas gingivalis, Streptococcus mutans, and Stretococcus sanguis. The starting dilution was 0.1 percent in methanol. The MIC used in this Example 5 was the MIC for each agent relative to Porphyromonas gingivalis.

A further data set in a line: clinical. Conditions: human, in vivo.

Description for clinical: Ten volunteers chewed 2.7 grams samples of each gum formulation and provided saliva samples at intervals and the gum bolus at the end of the 25 minute chewing period. High pressure liquid chromatography and gas chromatography were used to analyze the gum bolus and saliva non-volatile and volatile components, respectively.
Saliva samples were collected from each of the individuals prior to chewing 2.7 grams of gum, and at 1.0, 2.5, 5.0, 10.0, and 25.0 minutes while chewing the gum. The saliva samples were refrigerated until analysis. The gum bolus that remained after 25 minutes was saved and extracted immediately or stored refrigerated until extraction for analysis.
Samples were Vortex-mixed in Multi-tube vortex mixer for one minute and then centrifuged at top speed in clinical centrifuge for two minutes. Supernatants were carefully transferred to 1 milliliter glass shell vials and capped. Analysis was carried out either by isocratic elution for glabridin-only samples, or gradient elution for the samples containing the glycyrrhizic and 18β-glycyrrhetinic acids using high pressure liquid chromatography. Glabridin concentrations were converted to GLY concentrations by taking the weight percent glabridin in GLY to be 2.74 percent.
The calibration curve was prepared using spiked blank saliva.
For saliva, the essential oils of menthol, cedarwood oil, geraniol and Rosmarinus officianalis were determined by capillary gas chromatography. The split ratio was 25:1. The injection volume was 2 μL. Four hundred μL of saliva was extracted from the 1 milliliter of ethyl acetate containing an internal standard (hexadecane) in 1.5 milliliter Eppendorf tubes. After centrifugation, the organic layer was injected directly into the Hewlett-Packard 6890 gas chromatograph. […] For this reason, only the samples from 0 to 10 minutes were analyzed. A cleanup gradient was run from 190 to 300° C. every fifth sample to remove less volatile interferences from the column.

As to `CC1CCC(C(C)C)C(O)C1` (centres unmarked) [Menthol], the “Release from Chewed Gum Bolus after 25 min” value in data set [1] amounted to 50%. Further, the minimum inhibitory concentration (MIC) in the data set on Porphyromonas gingivalis stood at 125 µg/mL. Further, for the setting “25 minutes, GLY formulations 1,3-6, RC1 5,6, GRA 4-6, GA, GR #6, menthol 1-6”, the “Concentration of Antimicrobial Agent in Saliva” value is listed as “below detection limits”. The “Above MIC in Saliva (Y/N)” value (concentration in saliva at any time above MIC relative to Porphyromonas gingivalis) is on record as “No”. Also, in “clinical”, the concentration at 1 min was found to be 25000 ng/mL, the concentration at 2.5 min was 22000 ng/mL, the concentration at 5 min came to 24000 ng/mL and the concentration at 10 min was determined as 24000 ng/mL.
